In test [1] the test system is MCF7. The test can be described thus: Anticancer against human MCF7 cells assessed as tumor growth inhibition after 72 hrs by SRB assay. It counts as functional, cell-based. Conditions: MCF7, 72 h. (In SRB staining, fixed cells bind dye roughly in proportion to their protein.)
Test [2] concerns the target T1, Epidermal growth factor receptor (Homo sapiens, UniProt P00533). Description: Inhibition of epidermal growth factor receptor kinase (unknown origin) using [33P]-ATP after 20 to 30 mins by radiometric assay.
Test [3] deals with T1, Epidermal growth factor receptor. Description: Inhibition of epidermal growth factor receptor kinase (unknown origin) using [33P]-ATP at 0.001 uM after 20 to 30 mins by radiometric assay.
The target is the same in test [4]. The test can be described thus: Inhibition of epidermal growth factor receptor kinase (unknown origin) using [33P]-ATP at 0.1 mM after 20 to 30 mins by radiometric assay.

As a reminder, the IC50 is the concentration at which inhibition is half-maximal. For orientation: inhibition means the change of the read-out against control, counted positive when it falls.

T1 sequence (P00533 whole entry): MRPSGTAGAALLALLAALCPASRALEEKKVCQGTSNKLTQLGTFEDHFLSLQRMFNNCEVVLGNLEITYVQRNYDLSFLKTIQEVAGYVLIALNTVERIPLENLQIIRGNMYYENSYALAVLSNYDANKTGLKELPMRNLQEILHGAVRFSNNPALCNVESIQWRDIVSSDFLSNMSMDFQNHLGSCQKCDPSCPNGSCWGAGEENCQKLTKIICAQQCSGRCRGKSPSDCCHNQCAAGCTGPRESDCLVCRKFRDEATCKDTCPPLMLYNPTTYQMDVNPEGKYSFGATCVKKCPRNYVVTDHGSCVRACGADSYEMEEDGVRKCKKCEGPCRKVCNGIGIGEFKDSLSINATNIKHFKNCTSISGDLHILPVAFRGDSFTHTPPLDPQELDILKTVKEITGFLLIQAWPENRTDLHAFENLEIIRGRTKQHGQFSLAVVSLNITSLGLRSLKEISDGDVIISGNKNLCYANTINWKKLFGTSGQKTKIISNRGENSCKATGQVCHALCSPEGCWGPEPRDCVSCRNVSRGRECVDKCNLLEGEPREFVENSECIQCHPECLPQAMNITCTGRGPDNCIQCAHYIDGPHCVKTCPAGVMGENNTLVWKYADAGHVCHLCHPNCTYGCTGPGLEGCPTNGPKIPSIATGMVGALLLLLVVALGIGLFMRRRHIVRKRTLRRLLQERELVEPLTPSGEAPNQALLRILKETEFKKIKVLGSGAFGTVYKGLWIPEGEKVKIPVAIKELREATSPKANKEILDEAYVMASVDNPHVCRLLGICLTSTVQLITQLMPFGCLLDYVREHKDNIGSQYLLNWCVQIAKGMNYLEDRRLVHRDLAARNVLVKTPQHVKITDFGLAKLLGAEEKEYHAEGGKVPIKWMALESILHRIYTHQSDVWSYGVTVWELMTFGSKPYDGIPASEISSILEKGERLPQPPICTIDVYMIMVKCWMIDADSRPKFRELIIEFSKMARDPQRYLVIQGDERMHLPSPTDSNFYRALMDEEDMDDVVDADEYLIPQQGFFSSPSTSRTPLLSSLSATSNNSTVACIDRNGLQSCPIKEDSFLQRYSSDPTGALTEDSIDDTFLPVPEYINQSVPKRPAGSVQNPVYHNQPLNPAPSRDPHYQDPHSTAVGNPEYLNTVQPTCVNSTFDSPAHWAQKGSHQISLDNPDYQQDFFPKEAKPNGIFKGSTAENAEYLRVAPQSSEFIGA

As to `NC(=O)c1cnc2ccc(-c3csc(NC(=S)Nc4ccccc4)n3)cc2c1Nc1ccc(Br)cc1`, the IC50 in test [1] was 657 µM. In the case of `NC(=O)c1cnc2ccc(-c3csc(N)n3)cc2c1Nc1ccc(Br)cc1`, the IC50 in test [1] was 334 µM. Take `NC(=O)c1cnc2ccc(C(=O)/C=C/c3ccc(Cl)cc3)cc2c1Nc1ccc(Cl)cc1`: the IC50 in test [1] came out at 277 µM. Turning to `CN(C)c1ccc(/C=C/C(=O)c2ccc3ncc(C(N)=O)c(Nc4ccc(Br)cc4)c3c2)cc1`, the IC50 in test [1] came out at 51 µM.

With `Cc1ccc(Nc2c(C(N)=O)cnc3ccc(C(=O)/C=C/c4ccc(Cl)cc4)cc23)cc1`, in test [1], the IC50 worked out at 41.2 µM. Take `CN(C)c1ccc(/C=C/C(=O)c2ccc3ncc(C(N)=O)c(Nc4ccc(Cl)cc4)c3c2)cc1`: the IC50 came out at 3.46 µM in test [1] and 5.28 µM in test [2]. Further, the values for the inhibition in test [3] and in test [4] were 1% and 3%, respectively. `C=CC(=O)Nc1ccc2ncnc(Nc3cc(F)c(Cl)c(Cl)c3)c2c1`: the IC50 in test [2] was 3.7e-05 µM. Take `Cc1cc(NS(=O)(=O)c2ccc3ncc(C(N)=O)c(Nc4ccc(Br)cc4)c3c2)no1`: in test [1], the IC50 is 33.7 µM. Consider `Cc1cc(NS(=O)(=O)c2ccc(N/C=C(/C#N)C(=O)Nc3ccc(Br)cc3)cc2)no1`, for which, in test [1], the IC50 was 14 µM.

For `Cc1ccc(Nc2c(C(N)=O)cnc3ccc(-c4csc(NC(=S)Nc5ccccc5)n4)cc23)cc1`, in test [1], the IC50 came to 386 µM. Regarding `Cc1cc(NS(=O)(=O)c2ccc3ncc(C(N)=O)c(Nc4ccc(Cl)cc4)c3c2)no1`, in test [1], the IC50 came out at 145 µM. On to `NC(=O)c1cnc2ccc(-c3csc(NC(=S)Nc4ccccc4)n3)cc2c1Nc1ccc(Cl)cc1`, for which, in test [1], the IC50 was determined as 326 µM. With `Cc1ccc(Nc2c(C(N)=O)cnc3ccc(S(=O)(=O)Nc4cc(C)on4)cc23)cc1`, in test [1], the IC50 stood at 120 µM.

Take `Cc1ccc(NC(=O)/C(C#N)=C\Nc2ccc(S(=O)(=O)Nc3cc(C)on3)cc2)cc1`: the IC50 in test [1] was determined as 50.9 µM. With `NC(=O)c1cnc2ccc(C(=O)/C=C/c3ccc(Cl)cc3)cc2c1Nc1ccc(Br)cc1`, the results for the IC50 in test [1] and in test [2] were 328 µM and 4.82 µM, respectively. The values for the inhibition in test [3] and in test [4] were 0% and -3%, respectively. For `Cc1cc(NS(=O)(=O)c2ccc(N/C=C(/C#N)C(=O)Nc3ccc(Cl)cc3)cc2)no1`, the IC50 in test [1] is 28.4 µM. For the compound `NC(=O)c1cnc2ccc(-c3csc(N)n3)cc2c1Nc1ccc(Cl)cc1`, the IC50 in test [1] turned out to be 315 µM. As to `Cc1ccc(Nc2c(C(N)=O)cnc3ccc(C(=O)/C=C/c4ccc(N(C)C)cc4)cc23)cc1`, the IC50 in test [1] is 2.16 µM. Still for that read-out and setting: then `Cc1ccc(Nc2c(C(N)=O)cnc3ccc(-c4csc(N)n4)cc23)cc1`, with 62.2 µM.

(Values after ChEMBL document CHEMBL3611967, “Molecular design and synthesis of certain new quinoline derivatives having potential anticancer activity” (Eur J Med Chem, 2015).)
